Results published in PMC11062899, “De novo development of small cyclic peptides that are orally bioavailable” (Nature Chemical Biology, 2023).
Where “and” joins values, the source holds several entries; their conditions need not be identical. Equal values may be shown once. Read-outs that look alike come from different tables or passages of the source.

Key:
[1] = molecular target: human α-thrombin (Homo sapiens, UniProt P00734); assay: Protease inhibition, Ki for human α-thrombin (fluorogenic substrate Z-Gly-Gly-Arg-AMC); assay type: biochemical; conditions: for Human alpha thrombin inhibition, slope normalized to DMSO: replicates R1-R3
Experimental: (§1) The inhibition constants (Ki) of cyclic peptides were calculated by measuring thrombin inhibition in the presence of different concentrations of the cyclic peptides. […] Human α-thrombin (Molecular Innovations) and rat α-thrombin (Molecular Innovations) were used at final concentrations of 2 nM and 3 nM, respectively, and fluorogenic substrate (Z-Gly-Gly-Arg-AMC, Bachem) was used at a concentration of 50 μM. Enzymatic activity was determined by measuring fluorescent gain on a Tecan Infinite M200 Pro microplate reader (excitation: 360 nm, emission: 465 nm) or a PHERAstar FSX microplate reader (excitation: 380 nm, emission: 440 nm) for 30 min at 25 °C with a fluorescent readout every 3 min. The two instruments were controlled with Tecan Infinite M200 Pro instrument software (iControl, version 1.12) and PHERAstar FSX software (version 5.70, edition 8), respectively. Protease inhibition was calculated by comparing the enzymatic activity to a control without cyclic peptide.
(§2) Half maximal inhibitory concentration (IC50) values were determined using a four-parameter logistic regression model in GraphPad Prism 9 to fit sigmoidal curves to the acquired data points according to equation (2) below.2 y=b+a−b/1+10^(logIC50−x)p where a and b represent the measured inhibition maximum and minimum, respectively; x is the logarithm of peptide concentration; y is the thrombin activity compared to a control without the cyclic peptide; and p is the Hill coefficient.
(§3) Ki values were calculated using the IC50 and the Cheng–Prusoff equation (equation (3)).3 Ki=IC50/1+S0/Km where Km is the Michaelis–Menten constant of the enzyme for the substrate used in the assay, and [S]0 is the initial substrate concentration.

[2] = molecular target: T1, rat α-thrombin (Rattus norvegicus, UniProt P18292); assay: Protease inhibition, Ki for rat α-thrombin (fluorogenic substrate Z-Gly-Gly-Arg-AMC); assay type: biochemical; conditions: for Rat alpha thrombin inhibition, slope normalized to DMSO: replicates R1-R3
T1 construct: rat α-thrombin (Molecular Innovations) were used at final concentrations of 2 nM and 3 nM; purchased Molecular Innovations
Experimental: as §1, §2, §3

[3] = Passive artificial membrane permeability (PAMPA);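 on Permeability% Average: top well sample relative to theoretical equilibrium sample by TIC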
[4] = peptide concentration 1.00E+02 uM
[5] = peptide concentration 1.19E-05 uM
[6] = peptide concentration 1.22E-02 uM
[7] = peptide concentration 1.25E+01 uM
[8] = peptide concentration 1.53E-03 uM
[9] = peptide concentration 1.56E+00 uM
[10] = peptide concentration 1.91E-04 uM
[11] = peptide concentration 1.95E-01 uM
[12] = peptide concentration 2.38E-05 uM
[13] = peptide concentration 2.44E-02 uM
[14] = peptide concentration 2.50E+01 uM
[15] = peptide concentration 3.05E-03 uM
[16] = peptide concentration 3.12E+00 uM
[17] = peptide concentration 3.81E-04 uM
[18] = peptide concentration 3.91E-01 uM
[19] = peptide concentration 4.77E-05 uM
[20] = peptide concentration 4.88E-02 uM
[21] = peptide concentration 5.00E+01 uM
[22] = peptide concentration 6.10E-03 uM
[23] = peptide concentration 6.25E+00 uM
[24] = peptide concentration 7.63E-04 uM
[25] = peptide concentration 7.81E-01 uM
[26] = peptide concentration 9.54E-05 uM
[27] = peptide concentration 9.77E-02 uM

Q: With O=C1C[C@H]2CCCN2C(=O)[C@H](Cc2ccccc2)NC(=O)[C@@H](NC(=O)c2ccc(Cl)s2)CCCC=CCCCN1 [compound 42] as the molecule, how does the Ki ([1]; average of R1-R3, read-out: Human alpha thrombin inhibition, Ki Average) read?
A: 321 nM

Q: And the “Human alpha thrombin inhibition, slope normalized to DMSO” value [1, 4]?
A: 8.6 and 8.9 and 9.5

Q: And the “Human alpha thrombin inhibition, slope normalized to DMSO” value [1, 5]?
A: 104.7 and 99.7 and 99.1

Q: What about the “Human alpha thrombin inhibition, slope normalized to DMSO” value [1, 6] of the same molecule?
A: 46.3 and 101.7 and 85.0

Q: And the “Human alpha thrombin inhibition, slope normalized to DMSO” value [1, 7]?
A: 5.3 and 13.8 and 11.9

Q: What about the “Human alpha thrombin inhibition, slope normalized to DMSO” value [1, 8] of the same molecule?
A: 49.9 and 105.6 and 101.7

Q: What about the “Human alpha thrombin inhibition, slope normalized to DMSO” value [1, 9] of the same molecule?
A: 36.6 and 35.2 and 35.3

Q: What about the “Human alpha thrombin inhibition, slope normalized to DMSO” value [1, 10] of the same molecule?
A: 98.2 and 106.9 and 104.5

Q: And the “Human alpha thrombin inhibition, slope normalized to DMSO” value [1, 11]?
A: 49.0 and 78.5 and 77.7

Q: And the “Human alpha thrombin inhibition, slope normalized to DMSO” value [1, 12]?
A: 110.3 and 103.8 and 102.6

Q: And the “Human alpha thrombin inhibition, slope normalized to DMSO” value [1, 13]?
A: 87.9 and 84.7 and 102.8

Q: What about the “Human alpha thrombin inhibition, slope normalized to DMSO” value [1, 14] of the same molecule?
A: 10.1 and 9.5 and 12.3

Q: What about the “Human alpha thrombin inhibition, slope normalized to DMSO” value [1, 15] of the same molecule?
A: 53.7 and 99.4 and 62.7

Q: And the “Human alpha thrombin inhibition, slope normalized to DMSO” value [1, 16]?
A: 11.6 and 29.8 and 12.4

Q: What about the “Human alpha thrombin inhibition, slope normalized to DMSO” value [1, 17] of the same molecule?
A: 68.4 and 103.9 and 101.2

Q: What about the “Human alpha thrombin inhibition, slope normalized to DMSO” value [1, 18] of the same molecule?
A: 64.4 and 65.7 and 57.7

Q: What about the “Human alpha thrombin inhibition, slope normalized to DMSO” value [1, 19] of the same molecule?
A: 106.6 and 102.8 and 103.1

Q: And the “Human alpha thrombin inhibition, slope normalized to DMSO” value [1, 20]?
A: 55.2 and 93.5 and 76.8

Q: What about the “Human alpha thrombin inhibition, slope normalized to DMSO” value [1, 21] of the same molecule?
A: 11.6 (2×) and 7.0

Q: What about the “Human alpha thrombin inhibition, slope normalized to DMSO” value [1, 22] of the same molecule?
A: 92.4 and 103.3 and 95.4

Q: What about the “Human alpha thrombin inhibition, slope normalized to DMSO” value [1, 23] of the same molecule?
A: 8.5 and 19.8 and 17.9

Q: What about the “Human alpha thrombin inhibition, slope normalized to DMSO” value [1, 24] of the same molecule?
A: 104.5 and 110.5 and 71.2

Q: What about the “Human alpha thrombin inhibition, slope normalized to DMSO” value [1, 25] of the same molecule?
A: 53.0 and 40.3 and 48.0

Q: What about the “Human alpha thrombin inhibition, slope normalized to DMSO” value [1, 26] of the same molecule?
A: 104.5 and 106.6 and 99.3

Q: What about the “Human alpha thrombin inhibition, slope normalized to DMSO” value [1, 27] of the same molecule?
A: 84.9 and 80.9 and 75.3

Q: What about the IC50 ([1]; single replicates R1-R3, read-out: Human alpha thrombin inhibition, IC50) of the same molecule?
A: 141 nM and 513 nM and 595 nM

Q: What about the Ki ([1]; single replicates R1-R3, read-out: Human alpha thrombin inhibition, Ki) of the same molecule?
A: 108 nM (2×) and 396 nM (2×) and 459 nM (2×)

Q: And the Ki ([2]; average of R1-R3, read-out: Rat alpha thrombin inhibition, Ki Average)?
A: 104 nM

Q: What about the “Rat alpha thrombin inhibition, slope normalized to DMSO” value [2, 4] of the same molecule?
A: 11.1 and 8.8 and 6.3

Q: And the “Rat alpha thrombin inhibition, slope normalized to DMSO” value [2, 5]?
A: 97.9 and 89.1 and 104.7

Q: What about the “Rat alpha thrombin inhibition, slope normalized to DMSO” value [2, 6] of the same molecule?
A: 95.5 and 96.6 and 90.7

Q: What about the “Rat alpha thrombin inhibition, slope normalized to DMSO” value [2, 7] of the same molecule?
A: 7.6 and 6.9 and 7.3

Q: And the “Rat alpha thrombin inhibition, slope normalized to DMSO” value [2, 8]?
A: 101.7 and 97.0 and 102.3

Q: What about the “Rat alpha thrombin inhibition, slope normalized to DMSO” value [2, 9] of the same molecule?
A: 15.7 and 15.6 and 13.6

Q: And the “Rat alpha thrombin inhibition, slope normalized to DMSO” value [2, 10]?
A: 90.1 and 101.9 and 101.4

Q: And the “Rat alpha thrombin inhibition, slope normalized to DMSO” value [2, 11]?
A: 54.3 and 44.0 and 44.2

Q: And the “Rat alpha thrombin inhibition, slope normalized to DMSO” value [2, 12]?
A: 98.8 and 105.1 and 93.8

Q: What about the “Rat alpha thrombin inhibition, slope normalized to DMSO” value [2, 13] of the same molecule?
A: 96.7 and 81.8 and 91.8

Q: And the “Rat alpha thrombin inhibition, slope normalized to DMSO” value [2, 14]?
A: 6.5 and 0.4 and 5.6

Q: And the “Rat alpha thrombin inhibition, slope normalized to DMSO” value [2, 15]?
A: 104.2 and 96.1 and 93.1

Q: And the “Rat alpha thrombin inhibition, slope normalized to DMSO” value [2, 16]?
A: 7.9 and 9.5 and 5.7

Q: What about the “Rat alpha thrombin inhibition, slope normalized to DMSO” value [2, 17] of the same molecule?
A: 106.7 and 100.9 and 91.0

Q: And the “Rat alpha thrombin inhibition, slope normalized to DMSO” value [2, 18]?
A: 38.3 and 34.0 and 35.5

Q: And the “Rat alpha thrombin inhibition, slope normalized to DMSO” value [2, 19]?
A: 98.1 and 100.4 and 100.7

Q: What about the “Rat alpha thrombin inhibition, slope normalized to DMSO” value [2, 20] of the same molecule?
A: 84.8 and 84.4 and 72.7

Q: What about the “Rat alpha thrombin inhibition, slope normalized to DMSO” value [2, 21] of the same molecule?
A: 0.8 and 7.3 and 2.5

Q: What about the “Rat alpha thrombin inhibition, slope normalized to DMSO” value [2, 22] of the same molecule?
A: 104.0 and 93.5 and 94.8

Q: And the “Rat alpha thrombin inhibition, slope normalized to DMSO” value [2, 23]?
A: 7.5 and 8.8 and 7.9

Q: And the “Rat alpha thrombin inhibition, slope normalized to DMSO” value [2, 24]?
A: 97.9 and 91.4 and 101.5

Q: And the “Rat alpha thrombin inhibition, slope normalized to DMSO” value [2, 25]?
A: 26.2 and 23.7 and 23.1

Q: What about the “Rat alpha thrombin inhibition, slope normalized to DMSO” value [2, 26] of the same molecule?
A: 96.9 and 98.1 and 96.1

Q: What about the “Rat alpha thrombin inhibition, slope normalized to DMSO” value [2, 27] of the same molecule?
A: 69.5 and 66.8

Q: And the IC50 ([2]; single replicates R1-R3, read-out: Rat alpha thrombin inhibition, IC50)?
A: 215 nM and 179 nM and 168 nM

Q: What about the Ki ([2]; single replicates R1-R3, read-out: Rat alpha thrombin inhibition, Ki) of the same molecule?
A: 119 nM (2×) and 98.9 nM (2×) and 92.9 nM (2×)

Q: What about the “PAMPA permeability: % permeability” value ([3]; 50 μM, 12–18 h, acceptor concentration relative to equilibrium) of the same molecule?
A: 70 ± 22%

Q: What about the “Permeability% (single replicates R1–R3)” value ([3]; 50 μM, 13 h (Fig. 5d)) of the same molecule?
A: 83.98% and 44.59% and 81.97%

Q: And the “Permeability% Average” value ([3]; 50 μM, 13 h (Fig. 5d))?
A: 70.2%

Q: And the Papp at 50 μM ([3]; PAMPA, pH 7.4)?
A: 11.2 ×10⁻⁶ cm/s
